Test results taken from patent US20020092037A1, “Use of membrane supports in plant tissue culture processes” (priority 2000, published 2002).

Assays:
[1] = system: unknown fungus on Eucalyptus camaldulensis leaf explants; assay: Decontamination of Eucalyptus leaf explants of fungus; assay type: cell-based
From the text: Eucalyptus camaldulensis leaves were explanted from seedlings for the production of callus, and then discovered to be contaminated with an unknown fungus. Contaminated explants were shaken together to obtain the same degree of contamination for all explants to be used in this decontamination example. Contamination of each explant with the fungus was verified by streaking the explant on a potato dextrose agar plate, and observing independent growth of the fungus on the potato dextrose agar.
Approximately half the Eucalyptus leaf explants were then treated to decontamination by washing and collection of the tissue using polyester support membranes after each wash, similar to the improved decontamination method described in Example 6, split among five treatments:
Following the washing of half the material according to the protocol described in […] in the treatments described in the paragraph above, using three washes of 30 minutes each, the washed and non-washed material was then divided over the same support membrane treatments A-F as described in Example 8, except that nested within each support membrane treatment was the prior washing or lack of washing treatment, and within each of these latter treatments, the five fungicidal treatments listed above were further nested, wherein the antifungal agents benomyl, miconazole, nystatin or thiophanate were added to the medium subtending the tissue and supports in place of cefotaxime. Finally, non-contaminated explants were submitted to all treatments to determine the effects of the treatments on plant regeneration in the absence of fungus. Five explants were plated for each treatment combination.
The explants were then cultured in a growth chamber set at 27±3° C. and under low light, and were transferred biweekly using the same support membranes but supplying fresh sterile liquid and solid medium.

[2] = system: P. taeda embryogenic cell lines; assay: Embryo development over eradicants in liquid phase of biphasic development and maturation media, P. taeda; assay type: cell-based, Pinus taeda; details: eradicant in liquid phase of development/maturation media, cefotaxime 500 mg/L, TIMENTIN 400 mg/L
From the text: Agrobacterium contamination has been reported as recurring sometimes after long periods of time. With many species, eradicants are incorporated in all culture media used after the initial infection, including selection media, proliferation media, media to induce the formation of organs or the development of somatic embryos, media to elongate or mature organs or embryos that are formed, and regeneration media. For pine embryogenic cells, incorporation of eradicants into the embryo development and maturation media has been difficult due to the high temperature of polymerization of the media resulting from the incorporation of a high level of polyethylene glycol. Therefore, loblolly and hybrid pine cell lines grown and maintained as described in Examples 3-4 above were placed on polyester support membranes over gelled MSG1 embryo development and maturation media as described in Example 4 above, except that some of the development and maturation media were overlaid with various eradication treatments under the polyester support membranes. The treatments consisted of either no liquid phase, or a liquid phase identical to the gelled phase (except that gelling agent and activated charcoal were omitted) and incorporating either cefotaxime or TIMENTIN® as an eradicant. Three replicate plates were generated from each of […] (two from each of two P. taeda families and one hybrid pine family) for each of the treatments, and assessed for the ability of the cultures to develop high quality harvestable stage 3 embryos. Dishes were incubated in a dark growth chamber at 23±2° C. The membrane supports were transferred to new petri dishes containing fresh medium every 3 weeks. At week 9, stage 3 embryos were counted and those deemed suitable for germination were harvested.

[3] = system: Hybrid pine embryogenic cell lines; assay: Embryo development over eradicants in liquid phase of biphasic development and maturation media, hybrid pine; assay type: cell-based; details: eradicant in liquid phase of development/maturation media, cefotaxime 500 mg/L, TIMENTIN 400 mg/L
From the text: Agrobacterium contamination has been reported as recurring sometimes after long periods of time. With many species, eradicants are incorporated in all culture media used after the initial infection, including selection media, proliferation media, media to induce the formation of organs or the development of somatic embryos, media to elongate or mature organs or embryos that are formed, and regeneration media. For pine embryogenic cells, incorporation of eradicants into the embryo development and maturation media has been difficult due to the high temperature of polymerization of the media resulting from the incorporation of a high level of polyethylene glycol. […] Three replicate plates were generated from each of six embryogenic cell lines (two from each of two P. taeda families and one hybrid pine family) for each of the treatments, and assessed for the ability of the cultures to develop high quality harvestable stage 3 embryos. […] At week 9, stage 3 embryos were counted and those deemed suitable for germination were harvested.

[4] = system: Hybrid pine embryogenic cell lines; assay: Embryogenicity after biphasic maintenance treatments, hybrid pine; assay type: cell-based; details: for % germination: embryos from cultures maintained over eradicant liquid phase; for Average Number Of Embryos Harvested Per Plate: eradicant in liquid phase during maintenance, cefotaxime 500 mg/L, TIMENTIN 400 mg/L
[5] = system: P. taeda embryogenic cell lines; assay: Growth of pine embryogenic cells on polyester supports over biphasic media with eradicants, P. taeda; assay type: cell-based, Pinus taeda; details: liquid phase under polyester support, cefotaxime 500 mg/L, TIMENTIN 400 mg/L
From the text: (§1) Loblolly pine cell lines were used which had been grown and maintained as described in Examples 3-4 above, and purposely infected with bacteria as described in Example 6 above. Support membranes bearing plant tissue were then placed on gelled DCR2 maintenance media with various decontamination treatments. These treatments consisted of antibiotics (cefotaxime, carbenicillin, AUGMENTIN® or TIMENTIN®) as eradicants incorporated into the gelled DCR2 maintenance or selection media, the antibiotics incorporated into liquid DCR3 pipetted in a thin film over gelled DCR2 maintenance media lacking antibiotics, or the antibiotics incorporated into liquid DCR3 which was saturated into a filter paper laid on gelled DCR2 maintenance media lacking antibiotics. Support membranes bearing control cells were placed either on gelled DCR2 maintenance media, over liquid DCR3 pipetted in a thin film over gelled DCR2 maintenance media lacking antibiotics, or over a filter paper saturated with liquid DCR3 and laid on gelled DCR2 maintenance media lacking antibiotics. Decontamination and maintenance were continued for a period of approximately 12 weeks with transfer of the polyester support membranes, bearing the cells, every 14-21 days.

[6] = system: Hybrid pine embryogenic cell lines; assay: Growth of pine embryogenic cells on polyester supports over biphasic media with eradicants, hybrid pine; assay type: cell-based; details: liquid phase under polyester support, cefotaxime 500 mg/L, TIMENTIN 400 mg/L
[7] = system: P. taeda embryogenic cell lines; assay: Embryogenicity after biphasic maintenance treatments, P. taeda; assay type: cell-based, Pinus taeda; details: for % germination: embryos from cultures maintained over eradicant liquid phase; for Average Number Of Embryos Harvested Per Plate: eradicant in liquid phase during maintenance, cefotaxime 500 mg/L, TIMENTIN 400 mg/L
From the text: as §1

[8] = system: P. taeda embryogenic cell lines; assay: Embryo development and germination with abscisic acid applied in a liquid phase under polyester membranes; assay type: cell-based, Pinus taeda
Procedure: Loblolly pine embryogenic cell cultures were initiated, proliferated, cryopreserved, retrieved, further proliferated on gelled maintenance medium, and placed into liquid suspension for plating on embryo development medium MSG1 as described in Examples 3-4 above. Three replicate plates of each line were prepared for each of the following treatments:
Treatment B: the cells were plated onto polyester support membranes laid onto 1 ml liquid embryo development medium MSG1 containing PEG but lacking gelling agent and activated charcoal, pipetted over gelled embryo development medium MSG1
Treatment C: the cells were plated onto polyester support membranes laid onto 1 ml liquid embryo development medium MSG1 containing PEG but lacking gelling agent and activated charcoal, pipetted over gelled embryo development medium MSG1 lacking abscisic acid.
Embryos were developed, harvested and germinated as described in Example 4 above. The results of the counts of high quality cotyledonary stage embryos, and the germination tests with these embryos, are shown in Table 20 below.
In another experiment, an attempt had been made to decrease the osmotic potential of the liquid phase in order to facilitate filter sterilization.

[9] = system: P. taeda embryogenic cell lines; assay: as above; assay type: cell-based, Pinus taeda; remark: listed apart in the source
[10] = P1, gelled phase lacking abscisic acid and liquid phase containing abscisic acid
[11] = P1, liquid phase with same abscisic acid content as gelled phase
[12] = P2, gelled phase lacking abscisic acid and liquid phase containing abscisic acid
[13] = P2, liquid phase with same abscisic acid content as gelled phase

Question: Clc1ccc(COC(Cn2ccnc2)c2ccc(Cl)cc2Cl)c(Cl)c1 (stereo not shown) [miconazole, Miconazole] was tested. Which “contaminated explants in which decontamination did not succeed” value ([1]; contaminated Eucalyptus explants) did it give?
Answer: 7.5%

Question: What about the decontamination rate ([1]; contaminated Eucalyptus explants, 50 mg/L in wash medium) of the same compound?
Answer: 92.5%

Question: Which results are given for CO/N=C(\C(=O)N[C@@H]1C(=O)N2C(C(=O)O)=C(COC(C)=O)CS[C@H]12)c1csc(N)n1 [cefotaxime]?
Answer: Number of Harvestable Cotyledonary Stage Embryos Developed ([2]; P1): 208.0 ± 94.8; Number of Harvestable Cotyledonary Stage Embryos Developed ([2]; P2): 269.0 ± 23.3; Number of Harvestable Cotyledonary Stage Embryos Developed ([2]; P3): 25.0 ± 17.7; Number of Harvestable Cotyledonary Stage Embryos Developed ([2]; P4): 18.0 ± 1.0; Number of Harvestable Cotyledonary Stage Embryos Developed ([3]; H1): 200.0 ± 51.2; Number of Harvestable Cotyledonary Stage Embryos Developed ([3]; H2): 210.0 ± 67.1; % germination ([4]; H1): (96%); Average Number Of Embryos Harvested Per Plate ([4]; H1): 152.0 ± 40.8; % germination ([4]; H2): (88%); Average Number Of Embryos Harvested Per Plate ([4]; H2): 77.0 ± 10.4; Average growth over a one-month period (two transfers) ([5]; P1): 7.20 + 0.28; Average growth over a one-month period (two transfers) ([5]; P2): 1.93 + 0.24; Average growth over a one-month period (two transfers) ([5]; P3): 6.75 + 0.25; Average growth over a one-month period (two transfers) ([5]; P4): 8.97 + 0.19; Average growth over a one-month period (two transfers) ([6]; H1): 4.53 + 0.28; Average growth over a one-month period (two transfers) ([6]; H2): 8.76 + 0.63; % germination ([7]; P1): (10%); Average Number Of Embryos Harvested Per Plate ([7]; P1): 87.0 ± 37.5; % germination ([7]; P2): (66%); Average Number Of Embryos Harvested Per Plate ([7]; P2): 81.7 ± 44.5; % germination ([7]; P3): (21%); Average Number Of Embryos Harvested Per Plate ([7]; P3): 14.3 ± 4.2; % germination ([7]; P4): (36%); Average Number Of Embryos Harvested Per Plate ([7]; P4): 34.0 ± 16.1

Question: Which “phenolic release into the medium from plant tissue” value ([1]; also from successfully decontaminated plant tissue) does the source give for CCCCNC(=O)n1c(NC(=O)OC)nc2ccccc21 [benomyl, Benomyl] here?
Answer: elicited considerable phenolic release into the medium

Question: And the decontamination ([1]; in the washing (100 mg/L) and incorporated into the medium below the polyester supports)?
Answer: largely ineffective in decontamination

Question: CC1=CC(=O)CC(C)(C)[C@@]1(O)/C=C/C(C)=C\C(=O)O [Abscisic Acid, Abscisic acid] was tested. Which “Average Number Of High Quality Cotyledonary Embryos Per Plate” value [8, 10] did it give?
Answer: 30.3 ± 7.1

Question: And the “Percentage Of Resulting Embryos That Germinated” value [8, 10]?
Answer: 52.5%

Question: What about the “Average Number Of High Quality Cotyledonary Embryos Per Plate” value [8, 11] of the same compound?
Answer: 44.3 ± 21.1

Question: What about the “Average Number Of High Quality Cotyledonary Embryos Per Plate” value [8, 12] of the same compound?
Answer: 48.7 ± 5.0

Question: What about the “Percentage Of Resulting Embryos That Germinated” value [8, 12] of the same compound?
Answer: 57.5%

Question: And the “Average Number Of High Quality Cotyledonary Embryos Per Plate” value [8, 13]?
Answer: 44.3 ± 4.9

Question: And the “Percentage Of Resulting Embryos That Germinated” value [8, 13]?
Answer: 67.5%

Question: What about the “decrease in embryos per plate” value ([8]; abscisic acid in liquid phase only, overall use of 5% of the amount) of the same compound?
Answer: 30-60%

Question: And the “Average Number Of High Quality Cotyledonary Embryos Per Plate” value ([9]; L5, Liquid Phase containing ABA and PEG)?
Answer: 26.3 ± 45.6

Question: What about the “Average Number Of High Quality Cotyledonary Embryos Per Plate” value ([9]; L5, Liquid Phase containing ABA but no PEG) of the same compound?
Answer: 201.0 ± 44.5

Question: And the “Average Number Of High Quality Cotyledonary Embryos Per Plate” value ([9]; L9, Liquid Phase containing ABA and PEG)?
Answer: 64.0 ± 23.6

Question: And the “Average Number Of High Quality Cotyledonary Embryos Per Plate” value ([9]; L9, Liquid Phase containing ABA but no PEG)?
Answer: 97.0 ± 20.7

Question: What about the “Average Number Of High Quality Cotyledonary Embryos Per Plate” value ([9]; L42, Liquid Phase containing ABA and PEG) of the same compound?
Answer: 0

Question: What about the “Average Number Of High Quality Cotyledonary Embryos Per Plate” value ([9]; L42, Liquid Phase containing ABA but no PEG) of the same compound?
Answer: 0

Question: And the “Percentage Of Resulting Embryos That Germinated” value [9, 11]?
Answer: 55.0%
